Laboratory results taken from ChEMBL document CHEMBL6153029, “Next-generation cancer therapeutics: PROTACs and the role of heterocyclic warheads in targeting resistance” (Eur J Med Chem, 2025).
One block for each molecule: values may come before it.

Tests used:
[1] = biological target: T1, Protein cereblon/Bromodomain-containing protein 4 (Homo sapiens, UniProt O60885+Q96SW2); assay: PROTAC activity at CRBN/BRD4 in human MV4-11 cells assessed as induction of degradation of BRD4 measured after 24 hrs by Western blot analysis; type: cell-based
T1 sequence (Q96SW2 whole entry, looked up, other chains not shown): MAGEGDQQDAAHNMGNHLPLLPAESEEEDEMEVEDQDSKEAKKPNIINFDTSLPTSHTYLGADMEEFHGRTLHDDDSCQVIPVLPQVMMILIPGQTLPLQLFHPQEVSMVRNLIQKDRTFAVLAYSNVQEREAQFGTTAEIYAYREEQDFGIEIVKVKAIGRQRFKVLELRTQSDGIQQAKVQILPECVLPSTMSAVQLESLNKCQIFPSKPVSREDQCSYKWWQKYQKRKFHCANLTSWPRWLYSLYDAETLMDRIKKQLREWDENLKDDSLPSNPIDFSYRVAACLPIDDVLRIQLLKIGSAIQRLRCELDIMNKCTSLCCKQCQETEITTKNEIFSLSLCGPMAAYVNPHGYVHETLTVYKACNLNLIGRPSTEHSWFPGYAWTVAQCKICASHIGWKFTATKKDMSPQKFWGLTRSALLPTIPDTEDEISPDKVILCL

[2] = test system: THP-1; assay: Antiproliferative activity against human THP-1 cells; type: functional, cell-based
[3] = test system: MV4-11; assay: Antiproliferative activity against human MV4-11 cells; type: functional, cell-based
[4] = biological target: T1, Protein cereblon/Bromodomain-containing protein 4; assay: PROTAC activity at CRBN/BRD4 in human MV4-11 cells assessed as induction of degradation of BRD4 by measuring maximal degradation at 10 uM incubated after 24 hrs by Western blot analysis relative to control; type: cell-based
[5] = biological target: T2, Bromodomain-containing protein 4 (Homo sapiens, UniProt O60885); assay: Inhibition of BRD4 (unknown origin) at 1 micromol/L relative to control; conditions: dose 1.0 µmol/L
[6] = test system: HL-60; assay: Antiproliferative activity against human HL-60 cells; type: functional, cell-based
[7] = biological target: T2, Bromodomain-containing protein 4; assay: Inhibition of BRD4 (unknown origin) at 0.01 umol/L relative to control; conditions: dose 0.01 µmol/L
[8] = biological target: Platelet-derived growth factor receptor beta (Homo sapiens) (UniProt P09619); assay: Inhibition of PDGFRbeta (unknown origin) measured for 48 hrs at 10 uM relative to control
Sequence of Platelet-derived growth factor receptor beta (Homo sapiens) (P09619 whole entry): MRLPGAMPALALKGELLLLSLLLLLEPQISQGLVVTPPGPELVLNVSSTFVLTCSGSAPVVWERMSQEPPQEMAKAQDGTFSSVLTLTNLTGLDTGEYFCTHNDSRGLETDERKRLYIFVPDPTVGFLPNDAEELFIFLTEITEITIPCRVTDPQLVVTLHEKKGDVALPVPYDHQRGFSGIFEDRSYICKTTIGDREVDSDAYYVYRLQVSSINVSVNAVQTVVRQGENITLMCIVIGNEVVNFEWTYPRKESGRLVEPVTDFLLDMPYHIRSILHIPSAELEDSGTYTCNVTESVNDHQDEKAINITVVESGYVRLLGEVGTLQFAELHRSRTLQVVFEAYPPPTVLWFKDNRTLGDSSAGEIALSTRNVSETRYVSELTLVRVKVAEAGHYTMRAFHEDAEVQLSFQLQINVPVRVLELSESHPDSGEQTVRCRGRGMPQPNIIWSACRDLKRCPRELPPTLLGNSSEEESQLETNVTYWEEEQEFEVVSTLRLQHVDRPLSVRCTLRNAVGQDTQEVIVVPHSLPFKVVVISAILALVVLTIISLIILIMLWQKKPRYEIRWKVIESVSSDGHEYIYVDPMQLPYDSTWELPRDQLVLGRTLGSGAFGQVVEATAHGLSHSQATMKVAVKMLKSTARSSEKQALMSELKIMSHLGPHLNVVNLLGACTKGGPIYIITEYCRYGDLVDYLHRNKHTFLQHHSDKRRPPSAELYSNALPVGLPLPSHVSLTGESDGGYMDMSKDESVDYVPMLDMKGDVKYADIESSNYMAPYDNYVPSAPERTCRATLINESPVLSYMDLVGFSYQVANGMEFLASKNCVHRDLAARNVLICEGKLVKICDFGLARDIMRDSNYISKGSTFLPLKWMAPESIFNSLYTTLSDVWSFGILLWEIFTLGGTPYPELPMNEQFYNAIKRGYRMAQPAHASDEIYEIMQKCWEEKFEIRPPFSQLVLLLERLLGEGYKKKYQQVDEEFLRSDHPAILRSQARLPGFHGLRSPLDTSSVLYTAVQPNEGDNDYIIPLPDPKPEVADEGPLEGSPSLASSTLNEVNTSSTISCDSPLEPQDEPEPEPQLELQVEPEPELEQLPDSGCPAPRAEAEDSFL

[9] = biological target: T3, Glucose-induced degradation protein 4 homolog/EML4-ALK (Homo sapiens, UniProt Q9UM73+Q9HC35+Q8IVV7); assay: PROTAC activity at GID4/EML4-ALK in human NCI-H3122 cells assessed as protein degradation at 1 uM measured for 48 hrs by immunoblot analysis; type: cell-based
[10] = biological target: T4, Protein cereblon/ALK tyrosine kinase receptor/Nucleophosmin (Homo sapiens, UniProt Q9UM73+P06748+Q96SW2); assay: PROTAC activity at CRBN/NPM/ALK in human KARPAS-299 cells assessed as maximal degradation of protein at 1 uM incubated for 48 hrs by Western blotting analysis relative to control; type: cell-based
Target sequence in this assay (P06748 whole entry partner): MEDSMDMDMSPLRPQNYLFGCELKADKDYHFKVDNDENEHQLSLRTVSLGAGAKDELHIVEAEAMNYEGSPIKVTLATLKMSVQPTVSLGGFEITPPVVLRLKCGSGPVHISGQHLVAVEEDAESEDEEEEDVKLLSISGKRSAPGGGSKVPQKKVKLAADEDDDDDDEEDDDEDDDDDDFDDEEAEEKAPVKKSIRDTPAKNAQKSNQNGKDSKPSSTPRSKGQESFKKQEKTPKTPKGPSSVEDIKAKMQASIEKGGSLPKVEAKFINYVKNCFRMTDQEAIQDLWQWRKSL
Target sequence in this assay (Q96SW2 whole entry partner): as the sequence (Q96SW2 whole entry, looked up, other chains not shown) above
Target sequence in this assay (Q9UM73 19-1620 limits assumed): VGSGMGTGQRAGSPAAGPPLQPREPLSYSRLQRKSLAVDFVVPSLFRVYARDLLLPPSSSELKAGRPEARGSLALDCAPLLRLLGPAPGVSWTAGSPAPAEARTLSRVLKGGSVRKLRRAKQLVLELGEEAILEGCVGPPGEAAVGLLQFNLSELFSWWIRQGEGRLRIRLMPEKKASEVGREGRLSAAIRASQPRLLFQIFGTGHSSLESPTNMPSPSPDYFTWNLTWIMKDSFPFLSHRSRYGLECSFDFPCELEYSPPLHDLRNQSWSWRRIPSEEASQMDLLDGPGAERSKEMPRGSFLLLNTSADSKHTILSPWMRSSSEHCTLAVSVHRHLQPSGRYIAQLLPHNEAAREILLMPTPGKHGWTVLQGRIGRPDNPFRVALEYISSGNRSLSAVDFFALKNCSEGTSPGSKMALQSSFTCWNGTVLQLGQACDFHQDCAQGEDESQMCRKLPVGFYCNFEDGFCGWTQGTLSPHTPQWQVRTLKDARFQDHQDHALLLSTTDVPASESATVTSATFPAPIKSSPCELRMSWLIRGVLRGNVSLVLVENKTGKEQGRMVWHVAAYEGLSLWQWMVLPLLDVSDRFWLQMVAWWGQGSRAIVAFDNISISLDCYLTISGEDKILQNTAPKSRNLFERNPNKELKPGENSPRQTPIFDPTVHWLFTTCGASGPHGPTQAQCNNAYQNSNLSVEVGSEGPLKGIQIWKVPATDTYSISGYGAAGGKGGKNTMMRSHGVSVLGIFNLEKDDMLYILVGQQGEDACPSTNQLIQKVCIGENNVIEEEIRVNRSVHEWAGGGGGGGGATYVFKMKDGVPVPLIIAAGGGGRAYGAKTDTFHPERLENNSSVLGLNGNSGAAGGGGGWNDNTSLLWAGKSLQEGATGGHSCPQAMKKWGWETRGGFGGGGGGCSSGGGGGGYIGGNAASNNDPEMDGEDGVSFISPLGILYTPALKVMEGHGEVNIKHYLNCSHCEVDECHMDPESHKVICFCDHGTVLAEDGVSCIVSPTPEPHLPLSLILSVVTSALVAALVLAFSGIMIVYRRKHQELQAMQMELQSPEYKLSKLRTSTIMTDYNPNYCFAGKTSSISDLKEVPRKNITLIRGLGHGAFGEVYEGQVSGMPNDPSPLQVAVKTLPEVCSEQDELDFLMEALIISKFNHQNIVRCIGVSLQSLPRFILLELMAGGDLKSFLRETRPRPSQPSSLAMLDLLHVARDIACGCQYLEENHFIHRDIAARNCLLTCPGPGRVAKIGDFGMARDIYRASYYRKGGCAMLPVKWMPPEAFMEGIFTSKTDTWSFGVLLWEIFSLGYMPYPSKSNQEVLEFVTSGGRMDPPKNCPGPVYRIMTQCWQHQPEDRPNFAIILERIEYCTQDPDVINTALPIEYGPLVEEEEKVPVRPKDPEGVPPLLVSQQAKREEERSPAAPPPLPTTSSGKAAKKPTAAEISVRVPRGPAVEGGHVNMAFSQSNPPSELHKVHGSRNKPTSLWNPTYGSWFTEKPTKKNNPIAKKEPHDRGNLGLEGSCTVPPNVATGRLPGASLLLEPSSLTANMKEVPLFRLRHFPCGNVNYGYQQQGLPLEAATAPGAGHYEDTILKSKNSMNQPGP

[11] = biological target: T3, Glucose-induced degradation protein 4 homolog/EML4-ALK; assay: PROTAC activity at GID4/EML4-ALK in human NCI-H3122 cells assessed as maximal protein degradation at 1 uM measured for 48 hrs by immunoblot analysis relative to control; type: cell-based
Target sequence in this assay (Q8IVV7 whole entry partner): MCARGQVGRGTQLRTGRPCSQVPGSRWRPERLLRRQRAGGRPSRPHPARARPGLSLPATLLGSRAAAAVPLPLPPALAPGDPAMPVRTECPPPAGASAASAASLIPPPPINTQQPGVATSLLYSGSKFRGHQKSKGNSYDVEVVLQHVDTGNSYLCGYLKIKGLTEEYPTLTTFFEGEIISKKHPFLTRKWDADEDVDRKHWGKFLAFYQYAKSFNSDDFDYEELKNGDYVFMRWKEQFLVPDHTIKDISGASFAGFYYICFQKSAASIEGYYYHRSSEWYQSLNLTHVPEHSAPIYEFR
Target sequence in this assay (Q9HC35 whole entry partner): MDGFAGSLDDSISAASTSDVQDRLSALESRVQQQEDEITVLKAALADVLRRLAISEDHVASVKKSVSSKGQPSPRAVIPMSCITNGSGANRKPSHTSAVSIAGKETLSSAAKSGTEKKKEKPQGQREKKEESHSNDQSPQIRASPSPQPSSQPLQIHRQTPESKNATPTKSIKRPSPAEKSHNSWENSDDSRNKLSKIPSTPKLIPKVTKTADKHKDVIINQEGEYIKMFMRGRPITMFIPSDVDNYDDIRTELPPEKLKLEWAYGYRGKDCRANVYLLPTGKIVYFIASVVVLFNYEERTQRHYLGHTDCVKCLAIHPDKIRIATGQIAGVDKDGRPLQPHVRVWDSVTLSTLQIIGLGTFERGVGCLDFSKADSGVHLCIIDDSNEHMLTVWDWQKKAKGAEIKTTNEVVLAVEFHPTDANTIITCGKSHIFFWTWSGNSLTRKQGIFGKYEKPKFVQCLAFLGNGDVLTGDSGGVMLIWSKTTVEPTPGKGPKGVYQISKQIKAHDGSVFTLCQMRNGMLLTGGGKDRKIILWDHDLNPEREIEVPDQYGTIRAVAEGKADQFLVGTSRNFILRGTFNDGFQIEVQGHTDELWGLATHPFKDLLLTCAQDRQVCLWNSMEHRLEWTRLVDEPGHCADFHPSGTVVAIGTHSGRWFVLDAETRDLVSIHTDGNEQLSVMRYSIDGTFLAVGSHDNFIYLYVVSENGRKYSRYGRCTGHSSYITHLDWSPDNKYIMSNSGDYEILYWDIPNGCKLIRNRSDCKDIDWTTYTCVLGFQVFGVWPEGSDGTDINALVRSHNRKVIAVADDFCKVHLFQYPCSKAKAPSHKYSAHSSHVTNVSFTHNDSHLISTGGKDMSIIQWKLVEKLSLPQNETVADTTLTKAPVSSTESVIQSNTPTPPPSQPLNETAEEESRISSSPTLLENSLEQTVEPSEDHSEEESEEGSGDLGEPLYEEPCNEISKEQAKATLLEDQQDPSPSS
Target sequence in this assay (Q9UM73 19-1620 limits assumed): as the sequence (Q9UM73 19-1620 limits assumed) above

[12] = biological target: T4, Protein cereblon/ALK tyrosine kinase receptor/Nucleophosmin; assay: PROTAC activity at CRBN/NPM/ALK in human KARPAS-299 cells incubated for 48 hrs by Western blotting analysis; type: cell-based
[13] = Downregulation of MDM2 protein expression in human A549 cells at 1.11 uM relative to control; type: functional
[14] = Upregulation of p53 protein expression in human A549 cells at 10 uM relative to control; type: functional
[15] = test system: A549; assay: Antiproliferative activity against human A549 cells; type: functional, cell-based
[16] = Downregulation of MDM2 protein expression in human A549 cells at 10 uM relative to control; type: functional
[17] = Upregulation of p53 protein expression in human A549 cells at 3.33 uM relative to control; type: functional
[18] = Downregulation of MDM2 protein expression in human A549 cells at 3.33 uM relative to control; type: functional
[19] = Upregulation of p53 protein expression in human A549 cells at 1.11 uM relative to control; type: functional
[20] = test system: Pfeiffer; assay: Antiproliferative activity against human Pfeiffer cells
[21] = test system: MCF7; assay: Antiproliferative activity against human MCF7 cells
[22] = Half life in mouse; type: ADME, organism-based; conditions: in vivo
[23] = test system: Pfeiffer; assay: Induction of cell cycle arrest in human Pfeiffer cells assessed as G0/G1 phase arrest at 100 nM incubated for 24 hrs by PI staining based flow cytometry analysis; type: functional
[24] = Intrinsic clearance in mouse liver microsomes; type: ADME, Microsome; conditions: read-out: CLH
[25] = test system: MDA-MB-468; assay: Antiproliferative activity against human MDA-MB-468 cells
[26] = test system: MDA-MB-231; assay: Induction of cell cycle arrest in human MDA-MB-231 cells assessed as G0/G1 phase arrest at 12.3 to 1000 nM incubated for 24 hrs by PI staining based flow cytometry analysis; type: functional; conditions: dose 12.3-1000 nM
[27] = test system: MDA-MB-231; assay: Antiproliferative activity against human MDA-MB-231 cells
[28] = test system: T47D; assay: Antiproliferative activity against human T47D cells
[29] = biological target: Mitogen-activated protein kinase kinase kinase kinase 1 (Homo sapiens, UniProt Q92918); assay: Inhibition of HPK1 (unknown origin)
[30] = test system: LNCaP; assay: Antiproliferative activity against human LNCAP cells assessed as reduction in cell viability incubated for 24 hrs by MTT assay; type: functional, cell-based
[31] = biological target: Protein cereblon/Androgen receptor (Homo sapiens) (UniProt P10275+Q96SW2); assay: PROTAC activity at AR/CRBN in human LNCaP cells assessed as protein degradation measured by measuring maximal degradation at 5 uM incubated for 24 hrs by Western blot analysis relative to control; type: cell-based
[32] = biological target: T2, Bromodomain-containing protein 4; assay: Inhibition of BRD4 (unknown origin)
[33] = test system: U-87 MG; assay: Antiproliferative activity against human U87 cells; type: functional, cell-based, U-87MG ATCC

inhibition [8]: > 70%
SMILES: O=C1CCC(N2Cc3c(NC(=O)CCCNC(=O)c4cc(Oc5ccc(NC(=O)Nc6ccc(Cl)c(C(F)(F)F)c6)cc5)ccn4)cccc3C2=O)C(=O)N1 (stereo not drawn)

IC50 [15]: 2160 nM
SMILES: COC(C)(C)CCC[C@@](C)(O)[C@H]1CC[C@]2(C)[C@@H]1[C@H](O)C[C@@H]1[C@@]3(C)CC[C@H](OCC(=O)N4CCN(CC5CCN(c6ccc7c(c6)CN(C6CCC(=O)NC6=O)C7=O)CC5)CC4)C(C)(C)[C@@H]3CC[C@]12C (stereo partly drawn)
Activity [13]: 33.78%
Activity [14]: 147.15%
Activity [16]: 65.39%
Activity [17]: 138.01%
Activity [18]: 49.53%
Activity [19]: 133.45%

IC50 [21]: 4150 nM
half-life [22]: 1.07 h
CLint scaled [24]: 150 mL/min/kg
IC50 [25]: 1400 nM
IC50 [27]: 4480 nM
IC50 [28]: 6850 nM
SMILES: COc1cc(C)[nH]c(=O)c1CNC(=O)c1cccc2c1c(C)cn2[C@H](C)C1CCN(CCCCCCCCCC(=O)N[C@H](C(=O)N2C[C@H](O)C[C@H]2C(=O)NCc2ccc(-c3scnc3C)cc2)C(C)(C)C)CC1
IC50 [20]: 2050 nM
Activity [23]: 11.74%
Activity [26]: 68.38%

IC50 [29]: 614 nM
SMILES: COc1ccc(-c2c[nH]c3ccc(-c4ccc(N5CCN(C(=O)CCCCCNc6cccc7c6C(=O)N(C6CCC(=O)NC6=O)C7=O)CC5)cc4)cc23)cc1OC (stereo not drawn)

IC50 [30]: 4770 nM
Emax [31]: 57%
SMILES: CC1(C)C(=O)N(c2ccc(C#N)c(C(F)(F)F)c2)C(=S)N1CCCCCCCCC(=O)N1CCN(CCCCCCCCCCCCC(=O)NC23CC4CC(CC(C4)C2)C3)CC1

Second part, the molecule before the results:

SMILES: Cc1cc(-c2cc(NC(=O)CCC(=O)NCCOCCOCCc3ccc4c(c3)C(=O)N(C3CCC(=O)NC3=O)C4=O)ccc2Oc2ccccc2)n2cc[nH]c(=O)c12 (stereo not drawn)
DC50 [1]: 0.75 nM
IC50 [2]: 22.9 nM
IC50 [3]: 0.4 nM
Emax [4]: 95%
inhibition [5]: 92.3%
IC50 [6]: 45.6 nM
inhibition [7]: 61.1%

SMILES: COc1cc(N2CCN(C(=O)CNc3cccc4c3C(=O)N(C3CCC(=O)NC3=O)C4=O)CC2)ccc1Nc1ncc(Cl)c(Nc2ccccc2S(=O)(=O)C(C)C)n1 (stereo not drawn)
DC50 [9]: 358 nM
Emax [10]: 92.3%
Emax [11]: 81.3%
DC50 [12]: 4.6 nM

SMILES: CCS(=O)(=O)Nc1ccc(Oc2ccc(F)cc2F)c(-c2cn(C)c(=O)c3[nH]ccc23)c1 [MIVEBRESIB]
IC50 [32]: 2.6 nM

SMILES: Cc1ncsc1-c1ccc(CNC(=O)[C@@H]2C[C@@H](O)CN2C(=O)[C@@H](NC(=O)CCC(=O)Nc2ccc(-c3nncc4c3C3CC4CC3C(=O)NCCCC(=O)n3nc(N)c4c(-c5ccc(NC(=O)Nc6cccc(Cl)c6)cc5)cccc43)cc2)C(C)(C)C)cc1 (stereo partly drawn)
IC50 [33]: 910 nM
